Reference: patent publication US9334256B2, “Agents and methods for treating ischemic and other diseases” (NoNO INC., priority 2011, dated 2016)

Biological target: T1, TRPM7 (Mus musculus, UniProt Q923J1)
T1 construct: expressed in transfected cells; host or cells: HEK-293 tSA (HEK-293T) cells, transient transfection with Lipofectamine 2000
Assay: PI uptake cell death assay in TRPM7-expressing HEK-293 cells (type of assay from Example 1)
Type: cell-based, murine
Source text: The TRPM7 channel provides a pathway for mono- and divalent cations into the cell, and is unique in that it contains a functional C-terminal α-kinase domain. […] The induction of chemical anoxia in host cells such as recombinant HEK293 cells can be used to activate TRPM7. This activation is detectable with the use measurements of cellular calcium accumulation. This is achievable with the use of a fluorescent calcium indicator. Alternatively, this activation can also be measured using radiolabelled Ca2+ (^45Ca^2+) as described previously by Sattler et al. (Sattler et al., 1998) and Aarts et al. (Aarts et al., 2003).
Hoechst 33342 was purchased as a 10 mg/mL solution in water (Molecular Probes Inc., Eugene, Oreg.). Propidium iodide (PI) was purchased as a powder and prepared by dissolving in PBS at 1 mg/mL. PI solutions were stored at 4° C. until use. Hoechst and PI were added directly to cell culture to 5 μg/mL and 10 μg/mL respectively. Cells were incubated at room temperature or at 37° C. for 10 minutes to allow for adequate uptake, and fluorescence observed using a NIKON Eclipse TE2000 inverted microscope and TE-FM Epi-Fluorescence attachment (Nikon Canada).
Untransfected cells or cells transfected with the TRPM7/pTracer or ΔPDZ/pTracer construct were plated onto 24-well plates, 24-hours post-transfection. Untransfected cells were plated at 0.75×10^6 cells/well and transfected cells at 1×10^6 cells/well. The plates were coated with poly-D-lysine to strengthen cell adhesion and to minimize cell loss during washes. Cells were loaded by incubation with 5 μM fluo-3 AM and 0.02% pluronic in HBSS at 37° C. for 30 minutes. Following loading, cells were washed with an aglycaemic HBSS containing, in mM: 20 N-methyl-D-glucamine (NMDG), 121 NaCl, 5 KCl, 10 HEPES acid, 10 HEPES-Na salt, 3 NaHCO3, 1 Na-pyruvate, and 1.8 CaCl2, pH adjusted to 7.4 with HCl. Calcium uptake, as assessed by fluo-3 fluorescence, was measured in response to 0, 5, 10, 15, 20, or 25 mM sodium cyanide (NaCN; Mallinckrodt Baker Inc., Phillipsburg, N.J.) dissolved in aglycaemic HBSS. A 250 mM NaCN stock was prepared in water and stored at room temperature for up to 2 weeks. Measurements of fluo-3 fluorescence were taken over a 2 hour period at 10 minutes intervals at room temperature (22-25° C.). Calcium uptake assays were performed 48 hours post-transfection.
Cell death, as assessed by PI uptake, was examined at the end of the 2 hour calcium uptake assay. Cells were stained with 10 μg/mL PI and PI fluorescence measured using the Fluoroskan microplate reader (λ excitation=590 nm, λ emission=630 nm) and accompanying Ascent software (Thermo Electron Corp.). To obtain a reading of maximal fluorescence (Fmax), 0.5% Triton X-100 was added to each well and allowed to incubate for 20 minutes. Cell death assays were performed 48 hours post-transfection.
Data was entered into Excel (Microsoft, Seattle, Wash.) or SigmaPlot (SPSS Inc., Chicago, Ill.) for analysis. Pooled data are presented as the mean of at least 3 separate experiments±sem. Calcium uptake is expressed as a fraction of baseline uptake: ΔFt=(Ft−Fo)/Fo where Ft is the fluorescence at time t, and Fo is the fluorescence at baseline. Cell death is expressed as a percentage of total cell death: cell death (%)=Ft/Fmax×100 where Ft is the fluorescence at time t and Fmax is the maximal fluorescence obtained by permeabilization with Triton X-100. Concentration-response curves were fit by nonlinear regression with a 4 parameter logistic curve represented by the following equation: y=min+{(max−min)/[1+(x/EC50)n]} where y is the response at concentration x, min is the minimal response, max is the maximal response, EC50 is the concentration required for half-maximal response, and n is the Hill slope. Statistical analysis of data was carried out with a two-tailed Student's t test, or a one-way analysis of variance (ANOVA) followed by post hoc pairwise multiple comparisons testing using the Holm-Sidak method, where appropriate. […]

[1] = Table Y, commercially available compounds
[2] = Table X, the lower the number, the more potent in protecting against cell death
[3] = Table X, the lower the number, the more potent

T1 sequence (Q923J1 whole entry): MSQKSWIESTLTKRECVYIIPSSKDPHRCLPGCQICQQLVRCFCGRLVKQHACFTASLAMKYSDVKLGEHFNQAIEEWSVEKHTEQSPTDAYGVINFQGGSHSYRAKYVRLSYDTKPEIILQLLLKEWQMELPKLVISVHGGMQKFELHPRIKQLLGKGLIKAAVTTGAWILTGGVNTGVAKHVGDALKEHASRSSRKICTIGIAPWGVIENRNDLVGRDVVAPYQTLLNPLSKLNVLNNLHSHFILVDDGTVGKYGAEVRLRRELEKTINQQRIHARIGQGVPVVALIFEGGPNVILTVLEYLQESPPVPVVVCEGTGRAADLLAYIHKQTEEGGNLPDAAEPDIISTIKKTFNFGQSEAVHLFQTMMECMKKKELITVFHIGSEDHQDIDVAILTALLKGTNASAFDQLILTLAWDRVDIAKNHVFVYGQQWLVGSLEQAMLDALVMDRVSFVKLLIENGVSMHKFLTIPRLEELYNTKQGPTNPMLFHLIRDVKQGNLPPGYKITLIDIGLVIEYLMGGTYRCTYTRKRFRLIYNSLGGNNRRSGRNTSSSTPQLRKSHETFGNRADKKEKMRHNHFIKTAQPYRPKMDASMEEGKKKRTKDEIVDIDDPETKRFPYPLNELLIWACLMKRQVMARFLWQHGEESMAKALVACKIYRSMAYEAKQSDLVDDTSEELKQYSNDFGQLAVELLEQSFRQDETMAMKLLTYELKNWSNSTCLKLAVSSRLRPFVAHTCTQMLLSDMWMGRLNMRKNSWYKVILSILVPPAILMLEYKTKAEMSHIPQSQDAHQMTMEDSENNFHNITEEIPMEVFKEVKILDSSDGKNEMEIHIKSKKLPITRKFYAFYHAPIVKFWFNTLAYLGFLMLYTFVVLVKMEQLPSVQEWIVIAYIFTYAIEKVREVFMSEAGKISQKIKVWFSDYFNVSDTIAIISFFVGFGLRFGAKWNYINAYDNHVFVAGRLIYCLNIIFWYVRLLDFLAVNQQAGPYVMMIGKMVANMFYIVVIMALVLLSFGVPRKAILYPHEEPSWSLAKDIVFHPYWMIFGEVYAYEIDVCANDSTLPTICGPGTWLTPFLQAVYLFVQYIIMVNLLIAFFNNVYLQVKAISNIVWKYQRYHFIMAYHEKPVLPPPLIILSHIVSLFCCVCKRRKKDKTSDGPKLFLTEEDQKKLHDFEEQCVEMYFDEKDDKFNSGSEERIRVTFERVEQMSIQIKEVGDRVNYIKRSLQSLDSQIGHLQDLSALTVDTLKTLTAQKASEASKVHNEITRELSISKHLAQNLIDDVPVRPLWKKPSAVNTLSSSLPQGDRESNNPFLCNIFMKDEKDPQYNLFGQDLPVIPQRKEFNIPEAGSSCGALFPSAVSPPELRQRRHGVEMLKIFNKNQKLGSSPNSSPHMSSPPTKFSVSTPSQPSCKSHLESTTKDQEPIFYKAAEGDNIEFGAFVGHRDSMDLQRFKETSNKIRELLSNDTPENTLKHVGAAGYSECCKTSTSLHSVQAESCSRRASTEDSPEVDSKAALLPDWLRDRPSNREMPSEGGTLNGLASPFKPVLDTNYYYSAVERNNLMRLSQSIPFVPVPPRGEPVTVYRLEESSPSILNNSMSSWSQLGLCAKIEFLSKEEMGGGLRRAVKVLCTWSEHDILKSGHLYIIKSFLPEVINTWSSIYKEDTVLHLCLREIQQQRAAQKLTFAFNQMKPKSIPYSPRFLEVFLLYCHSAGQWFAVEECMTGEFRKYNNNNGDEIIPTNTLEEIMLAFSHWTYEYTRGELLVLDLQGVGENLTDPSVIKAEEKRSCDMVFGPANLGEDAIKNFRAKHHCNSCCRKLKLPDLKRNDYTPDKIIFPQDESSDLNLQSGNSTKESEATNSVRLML

SMILES	Normalized ratio of PI uptake (5 μM) [1]	Normalized ratio of PI uptake (10 μM) [1]	IC50 [1]	Normalized ratio of PI uptake (5 μM) [2]	Normalized ratio of PI uptake (10 μM) [3]	IC50 (Table X)
Cc1c(Cc2ccc(F)cc2)c(=O)oc2cc(O)ccc12 [RJF01910SC #10, reference compound]	0.465	0.261	4.15 µM	–	–	–
COc1ccc(C)c(N(CC(=O)c2cccs2)C(=O)c2sc3ccccc3c2Cl)c1 [Compound 103]	–	–	–	0.444	0.312	0.81 µM
Cc1ccc2c(c1)CCNC2c1sc2ccccc2c1Cl (stereo not shown) [Compound 54]	–	–	–	0.024	0.029	1.5 µM
CCCc1c(Cc2cccc(Cl)c2)c(=O)[nH]c2cc(O)cc(O)c12 [Compound 134]	–	–	–	0.564	0.305	–
COc1cccc2c1CCN=C2c1sc2ccccc2c1Cl [Compound 110]	–	–	–	0.037	0.06	1.38 µM
Cc1ccc2c(c1)CCN(C)C2c1sc2ccccc2c1Cl (stereo not shown) [Compound 55]	–	–	–	0.147	0.059	2.14 µM
CCN(CC)Cc1c(O)ccc2c(C)c(Cc3ccccc3)c(=O)oc12 [STOCK4S- 10213 #1, reference compound]	0.398	0.242	4.3 µM	–	–	–
COc1cc(OC)c2c(C)c(Cc3ccc(F)cc3)c(=O)[nH]c2c1 [Compound 138]	–	–	–	0.034	0.026	0.47 µM
Fc1cccc2c1CCN=C2c1sc2ccccc2c1Cl [Compound 112]	–	–	–	0.666	0.244	–
Cc1c(Cc2ccccc2)c(=O)oc2c(CN(C)C)c(O)ccc12 [STOCK1N- 36829 #3, reference compound]	0.262	0.102	4.72 µM	–	–	–
COc1ccc(C)c(N(Cc2cccc(C)n2)C(=O)c2sc3ccccc3c2Cl)c1 [Compound 102]	–	–	–	0.206	0.059	1.61 µM
Cc1c(Cc2ccccc2)c(=O)oc2cc(O)c(Cl)cc12 [STOCK6S- 31467 #2, reference compound]	0.472	0.1	12.6 µM	–	–	–
Cc1c(Cc2ccccc2)c(=O)oc2cc(O)cc(O)c12 [STOCK1N- 70089 #1, reference compound]	0.181	0.005	3.16 µM	–	–	–
COc1ccc(C)c(N(Cc2ccccn2)C(=O)c2sc3ccccc3c2Cl)c1 [Compound 52]	–	–	–	0.079	0.022	1.29 µM
Cc1ccc2c(c1)CCCN2C(=O)c1sc2ccccc2c1F [Compound 45]	–	–	–	0.399	0.072	4.66 µM
O=C(c1sc2ccccc2c1Cl)N(Cc1ccccc1)c1ccccc1 [MCC1879 #5, reference compound]	0.108	0.062	1.77 µM	–	–	–
CCCc1c(Cc2c(F)cccc2Cl)c(=O)oc2cc(O)ccc12 [RJF01538SC #14, reference compound]	0.16	0.057	2.78 µM	–	–	–
O=C(NC1CCOc2ccccc21)c1cc2ccccc2[nH]1 (stereo not shown) [T6749380 #12, reference compound]	0.043	0.029	2.8 µM	–	–	–

SMILES	Normalized ratio of PI uptake (5 μM) [1]	Normalized ratio of PI uptake (10 μM) [1]	IC50 [1]	Normalized ratio of PI uptake (5 μM) [2]	Normalized ratio of PI uptake (10 μM) [3]	IC50 (Table X)
Cc1ccc(N(Cc2ccncc2)C(=O)c2sc3ccccc3c2Cl)c(C)c1 [Compound 98]	–	–	–	0.36	0.067	2.53 µM
CCCc1c(Cc2ccc(Cl)c(Cl)c2)c(=O)[nH]c2cc(OC)cc(OC)c12 [Compound 132]	–	–	–	0.73	0.1	4.46 µM
Cc1c(Cc2c(Cl)cccc2Cl)c(=O)oc2cc(O)c(Cl)cc12 [RJF00028SC #11, reference compound]	0.233	0.136	3.16 µM	–	–	–
Cc1c(Cc2cccc(Cl)c2)c(=O)oc2cc(O)cc(O)c12 [Compound 77]	–	–	–	0.071	0.003	1.99 µM
Cc1c(Cc2c(Cl)cccc2Cl)c(=O)[nH]c2cc(O)cc(O)c12 [Compound 137]	–	–	–	0.575	0.296	8.5 µM
COc1cc(OC)c2c(C)c(Cc3ccc(Cl)cc3)c(=O)[nH]c2c1 [Compound 93]	–	–	–	0.071	0.041	0.21 µM
COc1ccc(C)c(N(Cc2ccc3ccccc3n2)C(=O)c2sc3ccccc3c2Cl)c1 [Compound 105]	–	–	–	0.07	0.17	0.86 µM
Cc1c(Cc2c(F)cccc2Cl)c(=O)[nH]c2cc(O)cc(O)c12 [Compound 133]	–	–	–	0.367	0.123	3.31 µM
COc1ccc2c(Cl)c(C3NCCc4cc(OC)c(OC)cc43)sc2c1 (stereo not shown) [Compound 71]	–	–	–	0.005	0.003	0.42 µM
CC1c2ccsc2CCN1C(=O)c1[nH]c2ccccc2c1Cl (stereo not shown) [T6899791 #8, reference compound]	0	0	0.7 µM	–	–	–
Fc1ccc2c(c1)CCNC2c1sc2ccccc2c1Cl (stereo not shown) [Compound 43]	–	–	–	0.060	0.020	2.54 µM
COc1ccc2sc(C3=NCCc4cc(OC)c(OC)cc43)c(Cl)c2c1 [Compound 70]	–	–	–	0.035	0.013	0.47 µM
COc1cc(OC)c2c(C)c(Cc3ccccc3)c(=O)[nH]c2c1 [Compound 56]	–	–	–	0.255	0.240	0.43 µM
COc1cc2c(cc1OC)C(c1sc3cc(C(F)(F)F)ccc3c1Cl)NCC2 (stereo not shown) [Compound 72]	–	–	–	0.000	0.000	0.39 µM
COc1cc(OC)c2c(C)c(Cc3cccc(Cl)c3)c(=O)[nH]c2c1 [Compound 94]	–	–	–	0.073	0.042	0.65 µM
Fc1ccc2c(c1)CCN=C2c1sc2ccccc2c1Cl [Compound 42]	–	–	–	0.304	0.010	3.99 µM
CCCc1c(Cc2ccc(Cl)c(Cl)c2)c(=O)[nH]c2cc(O)cc(O)c12 [Compound 136]	–	–	–	0.534	0.238	18.4 µM
COc1cc2c(cc1OC)C(c1sc3cc(OC)c(OC)cc3c1Cl)NCC2 (stereo not shown) [Compound 126]	–	–	–	0.012	0.059	1.03 µM
